The molecules below were run against mutant BRAF enzyme (BRAF-V600E) (Homo sapiens (Human), UniProt P15056, V600E) (assay: RAF inhibition assay (TB-PMAP2K1 kit), BRAF-V600E). Settings: FLUORESCEIN-MAP2K1 substrate, 60 min reaction.
Sequence of mutant BRAF enzyme (BRAF-V600E) (P15056 whole entry V600E): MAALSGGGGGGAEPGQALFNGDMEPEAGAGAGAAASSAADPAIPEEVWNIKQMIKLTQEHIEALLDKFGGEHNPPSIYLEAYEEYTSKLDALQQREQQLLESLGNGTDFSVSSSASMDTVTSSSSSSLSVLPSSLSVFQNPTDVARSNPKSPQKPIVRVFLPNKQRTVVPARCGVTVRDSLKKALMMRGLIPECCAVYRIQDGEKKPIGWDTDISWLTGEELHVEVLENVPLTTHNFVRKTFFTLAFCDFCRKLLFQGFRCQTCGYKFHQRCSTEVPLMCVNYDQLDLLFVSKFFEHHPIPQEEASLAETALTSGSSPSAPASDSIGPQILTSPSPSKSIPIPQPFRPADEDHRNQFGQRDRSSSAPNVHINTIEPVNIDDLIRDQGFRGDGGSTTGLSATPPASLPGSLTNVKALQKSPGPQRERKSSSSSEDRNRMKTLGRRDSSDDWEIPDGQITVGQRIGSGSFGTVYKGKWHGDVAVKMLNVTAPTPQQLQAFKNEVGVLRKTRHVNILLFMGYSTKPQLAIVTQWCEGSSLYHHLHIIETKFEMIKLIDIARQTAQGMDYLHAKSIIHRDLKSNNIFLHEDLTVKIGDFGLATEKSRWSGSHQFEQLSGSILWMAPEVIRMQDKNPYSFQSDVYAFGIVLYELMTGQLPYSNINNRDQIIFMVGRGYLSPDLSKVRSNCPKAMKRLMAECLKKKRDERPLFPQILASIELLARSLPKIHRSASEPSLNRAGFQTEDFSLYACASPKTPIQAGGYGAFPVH
Assay type: biochemical
`Cc1ccc2c(Nc3ccc(N(C)C)nc3)nccc2c1NC(=O)c1cccc2c(N)ncnc12` [Compound 59, 4-amino-N-(1-((6-(dimethylamino)pyridin-3-yl)amino)-6-methylisoquinolin-5-yl)quinazoline-8-carboxamide] was tested, and the IC50 was 13 ± 1.35 nM.
`COc1ccc(Nc2nccc3c(NC(=O)c4cnc5c(N)ncnn45)c(C)ccc23)c(F)c1` [Compound 61, 4-amino-N-(1-((2-fluoro-4-methoxyphenyl)amino)-6-methylisoquinolin-5-yl)imidazo[2,1-f][1,2,4]triazine-7-carboxamide] was tested, and the IC50 was 2.88 ± 0.74 nM.
Molecule `Cc1ccc2c(Nc3ccc(CN(C)C)c(C(F)(F)F)c3)nccc2c1NC(=O)c1cnc2c(N)ncnn12` [Compound 62, 4-amino-N-(1-((4-((dimethylamino)methyl)-3-(trifluoromethyl)phenyl)amino)-6-methylisoquinolin-5-yl)imidazo[2,1-f][1,2,4]triazine-7-carboxamide] has an IC50 of 19.7 ± 4.67 nM.
With `CC(=O)c1ccc(Nc2nccc3c(NC(=O)c4cccc5c(N)ncnc45)c(C)ccc23)cc1` [Compound 63, N-(1-((4-acetylphenyl)amino)-6-methylisoquinolin-5-yl)-4-aminoquinazoline-8-carboxamide] the IC50 was 5.39 ± 0.8 nM.
Work on `Cc1ccc2c(Nc3ccc(Cl)c(CN(C)C)c3)nccc2c1NC(=O)c1cccc2c(N)ncnc12` [Compound 64, 4-amino-N-(1-((4-chloro-3-((dimethylamino)methyl)phenyl)amino)-6-methylisoquinolin-5-yl)quinazoline-8-carboxamide] yielded an IC50 of 13 ± 3.58 nM.
Work on `Cc1ccc(Nc2nccc3c(NC(=O)c4cccc5c(N)ncnc45)c(C)ccc23)cc1` [Compound 65, 4-amino-N-(6-methyl-1-(p-tolylamino)isoquinolin-5-yl)quinazoline-8-carboxamide] yielded an IC50 of 4.8 ± 0.78 nM.
Molecule `Cc1ccc2c(Nc3cccc(Cl)c3F)nccc2c1NC(=O)c1nccc2c(N)ncnc12` [Compound 66, 4-amino-N-(1-((3-chloro-2-fluorophenyl)amino)-6-methylisoquinolin-5-yl)pyrido[3,4-d]pyrimidine-8-carboxamide] has an IC50 of 2.57 ± 0.32 nM.
`COc1ccc(Nc2nccc3c(NC(=O)c4cccc5c(N)ncnc45)c(C)ccc23)cc1OC` [Compound 68, 4-amino-N-(1-((3,4-dimethoxyphenyl)amino)-6-methylisoquinolin-5-yl)quinazoline-8-carboxamide] was tested, and the IC50 was 15 ± 2.65 nM.
In the case of `Cc1ccc2c(Nc3cccc(Cl)c3F)nccc2c1NC(=O)c1cncc2c(N)ncnc12` [Compound 69, 4-amino-N-(1-((3-chloro-2-fluorophenyl)amino)-6-methylisoquinolin-5-yl)pyrido[4,3-d]pyrimidine-8-carboxamide], the IC50 is reported as 4.3 ± 1.14 nM.
Molecule `Cc1ccc2c(Nc3ccc(Cl)c(F)c3F)nccc2c1NC(=O)c1cnc2c(N)ncnn12` [Compound 70, 4-amino-N-(1-((4-chloro-2,3-difluorophenyl)amino)-6-methylisoquinolin-5-yl)imidazo[2,1-f][1,2,4]triazine-7-carboxamide] has an IC50 of 10.5 ± 1.72 nM.
Molecule `Cc1ccc2c(Nc3ccnc(C(F)(F)F)c3)nccc2c1NC(=O)c1cccc2c(N)ncnc12` [Compound 71, 4-amino-N-(6-methyl-1-((2-(trifluoromethyl)pyridin-4-yl)amino)isoquinolin-5-yl)quinazoline-8-carboxamide] has an IC50 of 23 ± 1.76 nM.
`Cc1ccc2c(Nc3cc(F)ccc3F)nccc2c1NC(=O)c1cccc2c(N)ncnc12` [Compound 72, 4-amino-N-(1-((2,5-difluorophenyl)amino)-6-methylisoquinolin-5-yl)quinazoline-8-carboxamide] showed an IC50 of 6.9 ± 1.3 nM.
`CCOc1ccc(Nc2nccc3c(NC(=O)c4cccc5c(N)ncnc45)c(C)ccc23)c(F)c1` [Compound 74, 4-amino-N-(1-((4-ethoxy-2-fluorophenyl)amino)-6-methylisoquinolin-5-yl)quinazoline-8-carboxamide] was tested, and the IC50 was 13.8 ± 0.9 nM.
`COc1ccc(Nc2nccc3c(NC(=O)c4cccc5c(N)ncnc45)c(C)ccc23)cn1` [Compound 75, 4-amino-N-(1-((6-methoxypyridin-3-yl)amino)-6-methylisoquinolin-5-yl)quinazoline-8-carboxamide] showed an IC50 of 5.58 ± 0.77 nM.

From US20230312556A1, “ARYLAMIDE COMPOUND, PHARMACEUTICAL COMPOSITION COMPRISING SAME, AND PREPARATION METHOD THEREFOR AND USE THEREOF” (SICHUAN KELUN-BIOTECH BIOPHARMACEUTICAL CO., LTD., priority 2020, published 2023)
